Data on 15 sequences can be found in patent publication US10801023B2, “Methods of identifying biologically active random peptides in plants and libraries of plants expressing candidate biologically active random peptides” (University of Florida Research Foundation, Inc., priority 2015, dated 2020).

Experiment [1] relates to Arabidopsis thaliana plants. As to the kind of experiment: Screening of library of transformed plants expressing candidate BARPs for new phenotypes. It is filed as in vivo. To be noted: for new phenotype associated with the BARP: plant of the library from which the BARP sequence was isolated; for phenotype: transgenic Arabidopsis thaliana expressing the BARP, scored from emergence to senescence. The text has this: In the present example, the methods of the present disclosure were used to generate a library of test nucleic acids encoding a plurality of candidate BARPs, each having a core 6 amino acid random peptide sequence flanked by two cysteine residues. The sequences were also flanked by start and stop codons and Gateway® sequences, such as illustrated in FIG. 1. PCR was used with primers corresponding to the known Gateway flanking sequences to generate the test nucleic acid library. The oligonucleotides were then cloned into bacterial vectors including genes for kanamycin resistance to create a recombination vector library. The vectors were then moved to Agrobacterium tumefaciens strain […] and used to transform Arabidopsis thaliana plants. Seeds were collected from the transformed plants and used to grow new plants. These plants were observed from seedling through the plant lifecycle and observed for new phenotypes. Several new phenotypes emerged, DNA was extracted from the plants displaying new phenotypes, and the sequence of the candidate BARP from the plants was determined. The procedures and results are described in detail below.
The test nucleic acid sequences were synthesized using conserved initiator and terminator sequences flanking 18 random nucleotides, which provides a peptide that is ten amino acids long, with six of the core amino acids randomized, following a Met-Ala-Cys and ending with a Cys-term. This template is illustrated in FIG. 1. In the present example, the corresponding nucleic acid sequence was […] (SEQ ID NO: 5; nucleotides 14-46 of SEQ ID NO: 1). The cysteine residues in this case provide potential for formation of disulfide bonds that may impart additional structure to the adjacent amino acid loop. Although in this example 18 random nucleotides (identified as “N” in SEQ ID NOs: 1 and 5) were used, any number may be used, as long as it is a multiple of three.
To construct the library of random-core BARP sequences, the above DNA sequence was synthesized as an oligonucleotide sequence, along with flanking sequences corresponding to the Gateway® recombination sequences. The middle portion of the sequence, represented by “N” in FIG. 1, were randomized nucleotides. Known synthesis techniques were used to build the sequences, resulting in a library of PCR products containing test nucleic acid sequences (start codon, spacer codon, cysteine codon, 18 random nucleotides encoding a core candidate BARP sequence, second cysteine codon, and stop codon) flanked by Gateway recombination sequences. Although Gateway® sequences were used in the present examples, other recombination cloning primer sequences could be used or specifically designed.
The library of PCR products containing random test sequences was amplified using PCR based on flanking primers containing Gateway recombination sequences. These reactions produced a population of PCR products each containing the core peptide test sequence flanked by Gateway recombination sequences. These PCR products were introduced to the vector pDONR222 using Gateway recombination, and then transformed into E. coli genotype DH5α. The transformation vector also included the NPTII gene for kanamycin resistance. The E. coli cells were plated on kanamycin plates at low density to obtain single-colony separation. The single colonies each contained a separate plasmid bearing a random peptide sequence.
The colonies were recovered from plates in liquid medium, and the plasmids were isolated. The isolated plasmids represented a library of many independent, random sequences (encoding candidate BARPs) flanked by ‘start’ and ‘stop’ sequences. […]

The next experiment concerns Arabidopsis plants. As to the kind of experiment: Plant growth and phenotyping of PEP6 / PEP12 transgenic plants. It is filed as in vivo, Arabidopsis thaliana. To be noted: transgenic plant in soil; normal-sized plants 25 mm to 30 mm. The text has this:
Two libraries encoding six- and twelve-random amino acid cyclized peptides (denoted PEP6 and PEP12, respectively) were constructed in binary vectors (as illustrated in FIG. 9) using a Gateway cloning strategy and transformed into Arabidopsis. More than 1,500 transgenic plants with the PEP6 T-DNA inserts were isolated and more than 600 transgenic plants were isolated carrying the PEP12 insert, representing a survival ratio of 1.8% and 1.2% respectively under kanamycin selection. To ensure library representation in the population, DNA was prepared from at least fifty transgenic plants, including ten that had small rosette diameter (5 mm to 10 mm) (e.g., those having BARP sequences SEQ ID NO: 14, 16, 6, 19, 21, 23, 26, 28, 30, and 32) compared to normal-sized plants (25 mm to 30 mm; see Table 2). The nucleotide sequences of all amplified random peptide open reading frames (rpORFs) were different, indicating representation of library diversity was maintained throughout the cloning and transformation process. Several phenotypes were visually apparent. […] Some plants showing multiple growth defects were recorded in each phenotype. Bolting plants with multiple inflorescences were transformed with the PEP6 or PEP12 destination library through the floral dipping method (Clough and Bent, 1998, incorporated herein by reference). For selection, seeds were surface sterilized by 70% ethanol for 5 min and 10% bleach for 20 min. Surface-sterilized seeds were plated on ½× MS basal medium with 0.5% Phyto Agar (cat. # M10200 and # A20300, Research Products International) and 50 μg/ml kanamycin for selection. Transgenic seedlings were identified by GFP expression or resistance to kanamycin. Transformed seedlings were grown to the 3-5 true leaf stage on plates and transferred to soil. DNA was extracted from each seedling (Edwards et al., 1991 incorporated herein by reference) for inserted nucleotide sequence identification. An approximately 500 bp DNA fragment containing the random peptide ORF and part of pK7WG2D vector sequence was amplified using primers PEP-F and PEP-R (SEQ ID NOs: 35 and 36, respectively) listed in Table 4 and sequenced. Arabidopsis plants were grown in soil at 20° C. under 16 hour light/8 hour dark conditions. The characterization of phenotypic variations was based on the comparison among seedlings grown in the same pot or flat.

For experiment [2], the system named is Arabidopsis thaliana plants. As to the kind of experiment: Independent replication of peptide-induced phenotypes in independent transformant lines. To be noted: BARP sequence re-introduced into Arabidopsis thaliana. It is filed as in vivo. As to the method:
A number of first-transformed generation plants were prepared and phenotypes were observed using the methods described in Example 1, above. In this example some 12-amino-acid-long candidate BARPs were also synthesized and tested. The procedures were the same as for the 6-aa BARPs described in Example 1. These phenotypes were also observed to be stable and inherited in subsequent generations. To verify that the effects observed are due to the expressed peptide and not to other less-likely positional/insertional causes, in this Example, a substantial number of the of the candidate 6 and 12 amino-acid-long BARPs were sequenced and separately transformed into independent plants. […] One microliter was used in a PCR reaction under standard conditions, and using primers corresponding to the attachment (recombinational cloning sequences) of the Gateway vector, the corresponding BARP sequences was amplified. This sequences were then recombined into the pDONR222 vector and then re-ligated into the binary pKWDG2 over-expression vector as described above. This sequence was then re-introduced into Arabidopsis thaliana plants using the floral dipping strategy and selection as noted above. The seedlings were then analyzed for the phenotype as defined by the original transformant. Recapitulation of the phenotype in multiple, independent transformation events provided high evidence of a specific physiological effect of the peptide.

Experiment [3] deals with Arabidopsis thaliana seedlings. The experiment in a line: Salt tolerance screen and root elongation on salt media. Format: in vivo. As to the method: Also, to test for phenotypes not readily observable under normal conditions, seeds were collected from all plants in sets of nine and stored together, then planted and screened in various stress conditions to identify additional phenotypes. For example, seeds were planted on plant-growth media containing […] to screen for seedlings showing resistance to salt. Populations of BARP containing plants have also been grown in soil under water-deficit stress, leading to identification of peptides that confer tolerance to drought stress up on further evaluation.
Also, to test for phenotypes not readily observable under normal conditions, seeds were collected from all plants, stored, and later planted and screened in various stress conditions to identify additional phenotypes. […] Two lines thrived on the high-salt media, one of them resulting in a conspicuous root phenotype. […] The left-hand bars in the graph in FIG. 7A represent wild-type seedlings, and the right-hand bars show the effect of the peptide. Root elongation was measured four days after germination (Day 0) and then again at four-day intervals. Error bars represent standard error of the mean.

The test system of a further experiment is Arabidopsis seedlings. As to the kind of experiment: Inhibition of hypocotyl elongation under different light conditions. It is filed as in vivo, Arabidopsis thaliana. On the procedure:
Seeds were surface sterilized using a brief treatment of 70% ethanol and then set to dry on sterile paper discs in a laminar flow hood. The seeds were placed on 1 mM KCl plus 1 mM CaCl2 media containing 1% Phyto Agar on 100 mm square plates and stratified for 48 h. The vertical plates were transferred to various light conditions of varying spectral quality and fluence rates (as described in FIGS. 12A-12B), or complete darkness. […] Plants grown in darkness were placed under one of the narrow bandwidth treatments wrapped in two layers of aluminum foil. After 96 h the plates were scanned and the seedlings were measured using ImageJ software, and the length of the seedlings was reported as a fraction of dark-grown seedling length.

For the sequence “MACDFLADLC (chemically synthesized peptide sequence of BARP associated with bushy seedling phenotype) [SEQ ID NO: 3]”, the “new phenotype associated with the BARP” value in experiment [1] was ““bushy” seedling with small and upright leaves”.
Sequence “MACGGGCSAC (chemically synthesized peptide sequence of BARP PEP6-46) [PEPB-46]” showed a rosette size with Arabidopsis plants of 10 mm.
For “MACGKGSGLC (chemically synthesized peptide sequence of BARP associated with purple pigment accumulation in seed pods) [SEQ ID NO: 2]”, the “new phenotype associated with the BARP” value in experiment [1] was “hyperaccumulation of purple pigments in seed pods”.
Turning to “MACKQAXQRC (chemically synthesized peptide sequence of BARP CBF6AA-85 associated with large, flat leaves and small petioles) [BARP; “X” represents a stop codon]”, the phenotype entry in experiment [1] is reported as “tiny, curly leaves”. Also, the “phenotype in independent transformant lines” value in experiment [2] is reported as “large, flat leaves with small petioles”.
In the experiment with Arabidopsis plants, “MACNCSSDGC (chemically synthesized peptide sequence of BARP PEP6-27)” yielded a rosette size of 8 mm.
On to “MACPASVSVC (chemically synthesized peptide sequence of BARP 6AA-33.1 associated with salt resistance and elongated root growth) [PEP6-32, BARP associated with salt resistance, root growth and red light insensitivity]”, for which the salt tolerance result in experiment [3] (plant-growth media containing 100 μM NaCl) is reported as “salt tolerance”. Further, the root elongation entry in experiment [3] (seedlings on vertical agar plates under light, versus wild-type) is listed as “increase in root elongation”. In the experiment on Arabidopsis plants, this sequence showed a rosette size of 27 mm. In addition, the “hypocotyl length versus controls” value in the experiment with Arabidopsis seedlings (0.5 μmol·m^−2·s^−1 blue light) was “slightly longer hypocotyls”; in the experiment with Arabidopsis seedlings (blue light, fluence rates of 2 and 10 μmol·m^−2·s^−1), “differences were not observed”; in the experiment with Arabidopsis seedlings (far red light conditions), “No significant differences”. The “hypocotyl length versus wild-type controls” value in the experiment on Arabidopsis seedlings (constant red light, fluence rates of 1, 10 and 50 μmol·m^−2·s^−1, four lines) was “longer hypocotyls than wild-type controls”. The “seedling growth versus wild-type” value in the experiment with Arabidopsis seedlings (darkness) was “comparable to wild-type seedlings”. Besides, the “hypocotyl length versus other seedlings” value in the experiment on Arabidopsis seedlings (white light) is on record as “slightly longer hypocotyls”.
As for “MACPNACFSC (chemically synthesized peptide sequence of BARP PEP6-33)”, the rosette size with Arabidopsis plants is on record as 9 mm.
“MACQELTMWC (chemically synthesized peptide sequence of BARP PEP6-30)” came in with a rosette size in the experiment with Arabidopsis plants of 10 mm.
In the experiment with Arabidopsis plants, “MACQLMWREC (chemically synthesized peptide sequence of BARP PEP6-28)” showed a rosette size of 8 mm.
Consider “MACQQMLSGC (chemically synthesized peptide sequence of BARP PEP6-37)”, for which the rosette size in the experiment with Arabidopsis plants worked out at 8 mm.
In the case of “MACSAHCSDC (chemically synthesized peptide sequence of BARP associated with abberrant seedling characteristics) [SEQ ID NO: 4, BARP associated with strange seedling characteristics]”, the “new phenotype associated with the BARP” value in experiment [1] is “aberrant seedling characteristics”.
“MACSDVSVIC (chemically synthesized peptide sequence of BARP PEP6-38)” had a rosette size in the experiment with Arabidopsis plants of 8 mm.
On the same count and under the same terms, to “MACWMSRMEC (chemically synthesized peptide sequence of BARP PEP6-12)” belongs 5 mm.
Consider “MACWTSSVLC (chemically synthesized peptide sequence of BARP CBF6AA-110 associated with large, flat leaves and small petioles)”, for which the phenotype result in experiment [1] is recorded as “tiny”. In addition, the “phenotype in independent transformant lines” value in experiment [2] is reported as “large, flat leaves with small petioles”.
With “MGCVCIEPYQRLRAKC (chemically synthesized peptide sequence of BARP 12AA-97 associated with arrested plant growth)”, in experiment [1], the phenotype entry was “died late”. Besides, the “phenotype in independent transformant lines” value in experiment [2] is listed as “arrested plant growth”.
